Data set [1] in a line: Pharmacokinetic study after oral administration in rats. It is filed as in vivo, male Wistar rats. The protocol:
(§1) Male Wistar rats (250–300 g) obtained from Central Vivarium of Federal University of Goiás (UFG) were housed under a 12‐h light/dark cycle (22°C–23°C), with free access to food and water. This in vivo pharmacokinetic study was conducted in accordance with Ethical Principles in Animal Research, adopted by International Guiding Principles for Biomedical Research Involving Animals and approved by the Institutional Ethics in Research Committee at the UFG (Protocol CEUA/UFG 085/17). All efforts were made to minimize animal suffering as preconized by regulatory institutions.
(§2) LQFM020 was prepared in physiological solution containing DMSO 1% at dose of 10 mg/kg for intravenous administration (i.v., bolus), and then, blood samples (0.5 mL) were collected at 0, 0.5, 1, 2, 3, 4, 5, 6, and 24 h in heparinized microtubes. Oral administration (p.o.) was performed at LQFM020 dose of 9, 18, or 36 mg/kg prepared in physiological solution with DMSO 1%. Blood samples (0.5 mL) were collected at 0, 0.5, 1, 2, 3, 4, 5, 6, and 24 h in heparinized microtubes. Plasma samples were obtained by blood centrifugation (3000 g, 10 min) and were stored at −20°C.
(§3) LQFM020 pharmacokinetic parameters were obtained by non‐compartmental model, including peak plasma concentration (Cmax) and time to reach it (Tmax), elimination half‐life (t1/2), elimination constant (Kel), total area under the curve of plasma concentration versus time (AUCT), apparent distribution volume (Vd), clearance (Cl), and mean residence time (MRT). These pharmacokinetic parameters were calculated by Phoenix Connect 1.3.1 software (Certara, Princeton, NJ, USA).
LQFM020 absolute oral bioavailability F(%) was obtained applying AUCT and dose (D) from p.o. and i.v. administration, according to the equation: F%=AUCp.o./AUCi.v.×Di.v./Dp.o.×100

A short description of data set [2]: Pharmacokinetic study after intravenous bolus administration in rats. It is filed as in vivo, male Wistar rats. As to conditions: i.v. 10 mg/kg, male adult rats; for AUC(0-t) / half-life: male, Wistar, rat, plasma, iv. The protocol: as §1, §2, §3
The next data set deals with CYP3A4 (Homo sapiens, UniProt P08684). In words: CYP3A enzyme inhibition in vitro analysis (midazolam biotransformation, HPLC-PDA). The data set is classed as in vitro ADME. As to conditions: LQFM020 100 μg/mL, midazolam 10 μg/mL, 37°C, 2 h. The protocol:
LQFM020 was evaluated for its ability to inhibit CYP3A4—the main subfamily responsible for drug metabolism in humans. […] Cold methanol was added after stirring these mixtures at 37°C for 2 h to stop the reaction and then centrifuged at 13,000 g for 10 min. The supernatant was filtered in Millex 0.22 μm pore and injected into HPLC system for the quantitation of midazolam. All samples were prepared in quintuplicate and analyzed by a HPLC‐PDA‐based method rigorously validated in our laboratory routine for the midazolam metabolites' quantification 1‐hydroxydazolam (1‐HMDZ) and 4‐hydroxydazolam (4‐HMDZ) (Ramirez De Oliveira et al. [2015]).

Data set [3] in a line: Stability of LQFM020 in rat plasma (short-term, freeze-thaw, long-term). The data set is classed as in vitro ADME. As to conditions: n = 3. How it is done: Bioanalytical method validation was conducted in accordance with the guideline of Brazilian Health Surveillance Agency (ANVISA) RDC 27/2012, analyzing several parameters, such as matrix effect, recovery, selectivity, linearity, precision and accuracy, and stabilities (short‐term, long‐term, and freezing/thawing cycles) (ANVISA [2012]).
Indeed, rat plasma concentrations (n = 3) of LQC and HQC presented a nonsignificant degradation below ±15% (RE), ranging from 89.2 ± 2.2% (short term) to 107.5 ± 1.8% (long term) at the end of storage condition times, as shown in Table 2.

The subject of a further data set is 3T3 cell. The arrangement: method as in de Oliveira et al. [2017]. The conditions noted are these: 3T3 cells; ref de Oliveira et al. [2017]; cited from earlier work.
For data set [4] the following is noted: mouse, in vivo, po; cited from earlier work.
On the set-up of data set [5]: method as in earlier work. As to conditions: oral; ref Davies et al. [2000]; Dhondt et al. [2017]; Gong et al. [2012]; cited from earlier work.
The mark [6] stands for this setting: Wistar, rat, plasma, oral 9 mg/kg, male adult rats, mean ± SEM, n = 3.
Where [7] appears, read: Wistar, rat, plasma, oral 18 mg/kg, male adult rats, mean ± SEM, n = 3.
The mark [8] stands for this setting: Wistar, rat, plasma, oral 36 mg/kg, male adult rats, mean ± SEM, n = 3.
[9] abbreviates: individual animals 1-3, 10 mg/kg.
Setting [10] is: 10 mg/kg, individual animals 1-3.

“And” between values parts separate entries of the source, which are not always exact repeats. Equal entries are not always repeated. “Also recorded” adds a separate entry of the source. Where two headings read alike, the source gives them in different places. Some results are limits rather than exact numbers.

CYP3A4, sequence (P08684 whole entry): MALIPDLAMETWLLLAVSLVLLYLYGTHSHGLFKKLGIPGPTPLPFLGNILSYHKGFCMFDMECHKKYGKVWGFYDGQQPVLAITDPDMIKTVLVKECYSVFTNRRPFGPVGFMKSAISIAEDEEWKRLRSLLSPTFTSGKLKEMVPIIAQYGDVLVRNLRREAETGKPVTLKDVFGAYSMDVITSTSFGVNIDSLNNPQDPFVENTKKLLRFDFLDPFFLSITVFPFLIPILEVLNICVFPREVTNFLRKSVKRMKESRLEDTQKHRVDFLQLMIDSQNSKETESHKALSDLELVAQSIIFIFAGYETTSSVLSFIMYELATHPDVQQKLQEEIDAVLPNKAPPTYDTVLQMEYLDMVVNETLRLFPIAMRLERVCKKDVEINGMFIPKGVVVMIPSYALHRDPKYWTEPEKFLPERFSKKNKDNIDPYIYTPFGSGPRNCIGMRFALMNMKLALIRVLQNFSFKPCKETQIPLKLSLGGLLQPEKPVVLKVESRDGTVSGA

One may read the AUC(0-t) as the area under the concentration-time curve up to a stated or last time point. The low end stands for less exposure, the high end for more exposure. One may read the Cmax as the maximum level reached in the sampled fluid or tissue. For orientation: Tmax means the time at which the peak concentration occurs. As usually defined, the Vd/F is the apparent distribution volume after extravascular dosing. A word on the bioavailability: it is dose-corrected exposure relative to a reference, in per cent. Consider `Fc1ccc(-n2cc(-c3nn[nH]n3)cn2)cc1` [LQFM020, 5‐[1‐(4‐fluorophenyl)‐1H‐pyrazol‐4‐yl]‐2H‐tetrazole], for which the AUC(0-t) in data set [1] (setting [6]) is 69.8 ± 5.33 µg·h/mL; in data set [1] (setting [7]) it was 110 ± 17.1 µg·h/mL; in data set [1] (setting [8]), 287 ± 82.4 µg·h/mL; in data set [2] (setting [10]), 1230 µg·h/mL; in data set [2] (10 mg/kg, mean ± SEM, n = 3) it was 1220 ± 77.9 µg·h/mL. Also, the maximum concentration (Cmax) in data set [1] (setting [6]) was 16600 ± 4410 ng/mL; in data set [1] (setting [7]), 26600 ± 2030 ng/mL; in data set [1] (setting [8]), 55200 ± 21100 ng/mL. Also, the Tmax in data set [1] (setting [6]) is 1.66 ± 0.66 h; in data set [1] (setting [7]), 0.83 ± 0.17 h; in data set [1] (setting [8]) it was 1.67 ± 0.66 h. For the same compound, the Vd/F in data set [1] (setting [6]) was 0.86 ± 0.4 L/kg; in data set [1] (setting [7]), 1.44 ± 0.36 L/kg; in data set [1] (setting [8]), 1.16 ± 0.26 L/kg; in data set [2] (setting [9]), 0.032 L/kg and 0.041 L/kg and 0.036 L/kg; in data set [2] (mean ± SEM, n = 3) it was 0.03 ± 0.00 L/kg. Also, the half-life in data set [1] (Wistar, rat, plasma, oral 9 mg/kg, male adult rats, mean ± SEM, n = 3, read-out: t1/2 (converted)) was 5.82 ± 2.35 h; in data set [1] (Wistar, rat, plasma, oral 18 mg/kg, male adult rats, mean ± SEM, n = 3, read-out: t1/2 (converted)), 5.85 ± 0.96 h; in data set [1] (Wistar, rat, plasma, oral 36 mg/kg, male adult rats, mean ± SEM, n = 3, read-out: t1/2 (converted)), 6.74 ± 2.47 h; in data set [1] (male, Wistar, rat, plasma, oral administration, rats, overall, read-out: elimination half-time (t1/2) (converted)) it was about 6 h; in data set [2] (setting [10]), 2.83 h; in data set [2] (10 mg/kg, mean ± SEM, n = 3) it was about 3 h. Besides, the bioavailability in data set [1] (male, Wistar, plasma, oral, rat, from AUC and dose of p.o. and i.v. (10 mg/kg) administration, read-out: absolute oral bioavailability F(%)) came to 46%. The ClT worked out at 158 ± 14 mL/day/kg in data set [1] (oral 9 mg/kg, male adult rats, mean ± SEM, n = 3); 230 ± 29 mL/day/kg in data set [1] (oral 18 mg/kg, male adult rats, mean ± SEM, n = 3); 216 ± 86 mL/day/kg in data set [1] (oral 36 mg/kg, male adult rats, mean ± SEM, n = 3). In data set [2] (setting [9]), the AUCT is 1064.89 µg·h/mL and 1314.07 µg·h/mL. In addition, the ClT/F in data set [2] (setting [9]) was 12 mL/day/kg and 13 mL/day/kg and 10 mL/day/kg; in data set [2] (mean ± SEM, n = 3), 12 ± 0 mL/day/kg. Further, the t1/2 in data set [2] (setting [9]) was 3.06 h and 3.26 h; in data set [2] (mean ± SEM, n = 3, 10 mg/kg) it was 3.05 ± 0.12 h. Moreover, on CYP3A4, the “inhibition of CYP3A4 (peak areas of midazolam metabolites 1-HMDZ and 4-HMDZ vs negative control)” value is given as “no significant effect; also recorded: absence of inhibition; also recorded: does not change the biotransformation”. The “Stability, Accuracy (RE) (Mean ± CV%)” value in data set [3] (freeze–thaw (3 cycles), nominal 0.75 μg/mL) amounted to 96.4 ± 2.6%; in data set [3] (freeze–thaw (3 cycles), nominal 15 μg/mL), 96.0 ± 5.3%; in data set [3] (long duration (30 days, −20°C), nominal 0.75 μg/mL), 102.1 ± 6.5%; in data set [3] (long duration (30 days, −20°C), nominal 15 μg/mL), 107.5 ± 1.8%; in data set [3] (short duration (RT, 4 h), nominal 0.75 μg/mL), 89.2 ± 2.2%; in data set [3] (short duration (RT, 4 h), nominal 15 μg/mL), 94.5 ± 5.2%. Moreover, in the data set with 3T3 cell, the “concentrations reducing 3T3 cell viability” value is 350 to 1400 µM. The “orally well tolerated dose” value in data set [4] is given as at most 2000 mg/kg.

On to `Cc1ccc(-c2cc(C(F)(F)F)nn2-c2ccc(S(N)(=O)=O)cc2)cc1` [celecoxib], for which the Tmax in data set [5] is 2 to 4 h.

The record behind these values is PMC11983664, “Preclinical Pharmacokinetic Assessment of a Promising Vasorelaxant, Analgesic, and Anti‐Inflammatory Prototype 5‐[1‐(4‐Fluorophenyl)‐1H‐pyrazol‐4‐yl]‐2H‐tetrazole (LQFM020) Through Selective Bioanalytical HPLC‐PDA‐Based Method” (Biomedical Chromatography, 2025).
